How the values were obtained:
platelets = experiment: Platelets in 2% lysine citrate and CPD, 15 days storage; type: cell-based; details: PRP, CPD + 2% lysine citrate, room temperature
From the text: The second experiment was similar to the first platelet experiment reported above with the primary difference that the primary anticoagulant was CPD (citrate-phosphate-dextrose). This anticoagulant contains approximately 0.4% citrate by weight but also contains dextrose as an energy source for the platelets (and also, unfortunately, for any bacteria that may be present). […] It was believed that the CPD might further stabilize the platelets by providing an energy source.

[1] = system: Staphylococcus epidermidis; experiment: Colony counts of PRP samples subcultured on nutrient agar; type: cell-based; details: for Colony Counts: PRP 1% citrate spiked with about 10 cfu/ml, room temperature
Description: In the experiment anticoagulated blood (0.4% citrate by weight) was centrifuged to produce platelet Rich Plasma (PRP). To test samples of PRP citric acid stock solution containing sufficient lysine to bring the solution pH to 7.0 was added to increase the citrate concentration to 1% by weight. Following this addition the pH of the mixture was 6.7. It will be apparent to one of skill in the art that the precise ratio of basic amino acid to citrate can be altered to adjust the pH of the either the stock solution or the final blood mixture. One sample of original PRP was used as the Normal Control, and one sample of the lysine citrate PRP was used as the Citrate Control. One sample of original PRP was inoculated with cultured Staphylococcus epidermidis to a final concentration of about 10 cfu/ml—this formed the Spiked Normal. […] The samples were incubated at room temperature for five days. Each day the number of platelets in each sample was counted; each sample was also tested for LDH (lactate dehydrogenase) and for the ability to induce a clot. Following the tests an aliquot of each sample was subcultured on nutrient agar and incubated under growth conditions.

For `NCCCC[C@H](N)C(=O)O.O=C(O)CC(O)(CC(=O)O)C(=O)O` [Lysine Citrate, lysine citrate], the Clotting time (platelets; Day 1) was 29 s, the “Count (platelets)” value (platelets; Day 1) was 2.41 × 10^5 per μl and the LDH (platelets; Day 1) was 98 IU/L. For the same compound, the Clotting time (platelets; Day 2) was 30 s, the “Count (platelets)” value (platelets; Day 2) was 2.41 × 10^5 per μl and the LDH (platelets; Day 2) was 96 IU/L. The Clotting time (platelets; Day 3) was 30 s, the “Count (platelets)” value (platelets; Day 3) was 2.40 × 10^5 per μl and the LDH (platelets; Day 3) was 97 IU/L. The Clotting time (platelets; Day 4) was 31 s, the “Count (platelets)” value (platelets; Day 4) was 2.40 × 10^5 per μl and the LDH (platelets; Day 4) was 98 IU/L. For the same compound, the Clotting time (platelets; Day 5) was 32 s, the “Count (platelets)” value (platelets; Day 5) was 2.38 × 10^5 per μl and the LDH (platelets; Day 5) was 99 IU/L. For the same compound, the Clotting time (platelets; Day 6) was 30 s, the “Count (platelets)” value (platelets; Day 6) was 2.41 × 10^5 per μl and the LDH (platelets; Day 6) was 101 IU/L. For the same compound, the Clotting time (platelets; Day 7) was 28 s, the “Count (platelets)” value (platelets; Day 7) was 2.42 × 10^5 per μl and the LDH (platelets; Day 7) was 100 IU/L. For the same compound, the Clotting time (platelets; Day 8) was 28 s, the “Count (platelets)” value (platelets; Day 8) was 2.40 × 10^5 per μl and the LDH (platelets; Day 8) was 102 IU/L. The Clotting time (platelets; Day 9) was 31 s, the “Count (platelets)” value (platelets; Day 9) was 2.38 × 10^5 per μl and the LDH (platelets; Day 9) was 100 IU/L. The Clotting time (platelets; Day 10) was 30 s, the “Count (platelets)” value (platelets; Day 10) was 2.38 × 10^5 per μl and the LDH (platelets; Day 10) was 98 IU/L. For the same compound, the Clotting time (platelets; Day 11) was 29 s, the “Count (platelets)” value (platelets; Day 11) was 2.35 × 10^5 per μl and the LDH (platelets; Day 11) was 103 IU/L. The Clotting time (platelets; Day 12) was 30 s, the “Count (platelets)” value (platelets; Day 12) was 2.34 × 10^5 per μl and the LDH (platelets; Day 12) was 101 IU/L. For the same compound, the Clotting time (platelets; Day 13) was 30 s, the “Count (platelets)” value (platelets; Day 13) was 2.34 × 10^5 per μl and the LDH (platelets; Day 13) was 103 IU/L. For the same compound, the Clotting time (platelets; Day 14) was 31 s, the “Count (platelets)” value (platelets; Day 14) was 2.35 × 10^5 per μl and the LDH (platelets; Day 14) was 105 IU/L. For the same compound, the Clotting time (platelets; Day 15) was 26 s, the “Count (platelets)” value (platelets; Day 15) was 2.28 × 10^5 per μl and the LDH (platelets; Day 15) was 122 IU/L. For the same compound, the “Colony Counts” value ([1]; Day 1) was 10, the “Colony Counts” value ([1]; Day 2) was 7 and the “Colony Counts” value ([1]; Day 3) was 5. For the same compound, the “Colony Counts” value ([1]; Day 4) was 9, the “Colony Counts” value ([1]; Day 5) was 7 and the “bacteria following plating onto nutrient agar” value ([1]; unspiked PRP 1% citrate) was “no bacteria”.

Reference: patent publication US20090123907A1 (priority 2004, published 2009)
